Literature values as cited in patent US7560446B2, “Use of angiotensin II receptor antagonists for treating acute myocardial infarction” (Novartis AG, priority 1999, dated 2009).

Details: preclinical; administration of the compound in acute MI; no details given

SMILES: CCCCC(=O)N(Cc1ccc(-c2ccccc2-c2nnn[nH]2)cc1)[C@H](C(=O)O)C(C)C [valsartan, (S)—N-(1-carboxy-2-methylprop-1-yl)-N-pentanoyl-N—[2′(1H-tetrazol-5-yl)biphenyl-4-ylmethyl]amine]
- size of the MI: reduce the size of the MI
